Experimental data as given in PubChem BioAssay AID1963851 (Molecular Pharmacology Branch, DTP, NCI, 2024).

System: 188146-221-R-J1-PDC complex spheroid viability
Assay: Anticancer human tumor 188146-221-R-J1-PDC patient-derived colon adenocarcinoma cell line growth inhibition [POLQ]
Settings: for IC50: curve of first compound; for viability, T/C: stronger effect = lower value
How it was run: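 Three-cell-type spheroids modelling solid tumor plus stroma served as the readout system; POL inhibitors were tested individually and in combination, concentration ranges set by clinical Cmax where known.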

[1] = second compound 0.0316 µM, first compound 0.0316 µM
[2] = second compound 0.0316 µM, first compound 0.1 µM
[3] = second compound 0.0316 µM, first compound 0.316 µM
[4] = second compound 0.0316 µM, first compound 1 µM
[5] = second compound 0.0316 µM, first compound 3.16 µM
[6] = second compound 0.0316 µM, first compound 10 µM
[7] = second compound 0.1 µM, first compound 0.0316 µM
[8] = second compound 0.1 µM, first compound 0.1 µM
[9] = second compound 0.1 µM, first compound 0.316 µM
[10] = second compound 0.1 µM, first compound 1 µM
[11] = second compound 0.1 µM, first compound 3.16 µM
[12] = second compound 0.1 µM, first compound 10 µM
[13] = second compound 0.316 µM, first compound 0.0316 µM
[14] = second compound 0.316 µM, first compound 0.1 µM
[15] = second compound 0.316 µM, first compound 0.316 µM
[16] = second compound 0.316 µM, first compound 1 µM
[17] = second compound 0.316 µM, first compound 3.16 µM
[18] = second compound 0.316 µM, first compound 10 µM
[19] = second compound 1 µM, first compound 0.0316 µM
[20] = second compound 1 µM, first compound 0.1 µM
[21] = second compound 1 µM, first compound 0.316 µM
[22] = second compound 1 µM, first compound 1 µM
[23] = second compound 1 µM, first compound 3.16 µM
[24] = second compound 1 µM, first compound 10 µM
[25] = second compound 3.16 µM, first compound 0.0316 µM
[26] = second compound 3.16 µM, first compound 0.1 µM
[27] = second compound 3.16 µM, first compound 0.316 µM
[28] = second compound 3.16 µM, first compound 1 µM
[29] = second compound 3.16 µM, first compound 3.16 µM
[30] = second compound 3.16 µM, first compound 10 µM
[31] = second compound 10 µM, first compound 0.0316 µM
[32] = second compound 10 µM, first compound 0.1 µM
[33] = second compound 10 µM, first compound 0.316 µM
[34] = second compound 10 µM, first compound 1 µM
[35] = second compound 10 µM, first compound 3.16 µM
[36] = second compound 10 µM, first compound 10 µM
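Note: spheroids exposed to compounds for seven days.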
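Throughout, for viability, T/C: 100% = DMSO vehicle control viability.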

C=CC(=O)N1CCN(c2nc(=O)n(-c3c(C)ccnc3C(C)C)c3nc(-c4c(O)cccc4F)c(F)cc23)C(C)C1 (stereo not drawn) + Nc1ccc(C#CCN(C(=O)Cc2ncc(C(F)(F)F)cc2C(F)(F)F)c2ccc(F)cc2)nn1
IC50 (second compound 0.0316 µM): > 10 µM | IC50 (second compound 0.1 µM): > 10 µM | IC50 (second compound 0.316 µM): > 10 µM | IC50 (second compound 1 µM): > 10 µM | IC50 (second compound 3.16 µM): > 10 µM | IC50 (second compound 10 µM): > 10 µM | viability, T/C [1]: 104% | viability, T/C [2]: 107% | viability, T/C [3]: 103% | viability, T/C [4]: 96.5% | viability, T/C [5]: 104% | viability, T/C [6]: 84.9% | viability, T/C [7]: 95.7% | viability, T/C [8]: 108% | viability, T/C [9]: 101% | viability, T/C [10]: 102% | viability, T/C [11]: 120% | viability, T/C [12]: 85.6% | viability, T/C [13]: 104% | viability, T/C [14]: 99.2% | viability, T/C [15]: 109% | viability, T/C [16]: 82.2% | viability, T/C [17]: 104% | viability, T/C [18]: 78% | viability, T/C [19]: 108% | viability, T/C [20]: 91.6% | viability, T/C [21]: 92.6% | viability, T/C [22]: 113% | viability, T/C [23]: 97.4% | viability, T/C [24]: 103% | viability, T/C [25]: 96.8% | viability, T/C [26]: 108% | viability, T/C [27]: 92.4% | viability, T/C [28]: 104% | viability, T/C [29]: 97.5% | viability, T/C [30]: 101% | viability, T/C [31]: 101% | viability, T/C [32]: 104% | viability, T/C [33]: 107% | viability, T/C [34]: 107% | viability, T/C [35]: 98.1% | viability, T/C [36]: 96.4%

O=C(c1cc(Cc2n[nH]c(=O)c3ccccc23)ccc1F)N1CCN(C(=O)C2CC2)CC1 + COC1C(OC(N)=O)C(O)C(Oc2ccc3c(O)c(NC(=O)c4ccc(O)c(CC=C(C)C)c4)c(=O)oc3c2C)OC1(C)C
IC50 (second compound 0.0316 µM): > 10 µM | IC50 (second compound 0.1 µM): > 10 µM | IC50 (second compound 0.316 µM): > 10 µM | IC50 (second compound 1 µM): > 10 µM | IC50 (second compound 3.16 µM): > 10 µM | IC50 (second compound 10 µM): > 10 µM | viability, T/C [1]: 93.5% | viability, T/C [2]: 88.6% | viability, T/C [3]: 100% | viability, T/C [4]: 98.4% | viability, T/C [5]: 99.5% | viability, T/C [6]: 74.3% | viability, T/C [7]: 107% | viability, T/C [8]: 102% | viability, T/C [9]: 97.1% | viability, T/C [10]: 106% | viability, T/C [11]: 91.3% | viability, T/C [12]: 85.2% | viability, T/C [13]: 108% | viability, T/C [14]: 94.1% | viability, T/C [15]: 97.7% | viability, T/C [16]: 105% | viability, T/C [17]: 90.7% | viability, T/C [18]: 72.7% | viability, T/C [19]: 106% | viability, T/C [20]: 104% | viability, T/C [21]: 104% | viability, T/C [22]: 96.3% | viability, T/C [23]: 89.5% | viability, T/C [24]: 74.7% | viability, T/C [25]: 108% | viability, T/C [26]: 107% | viability, T/C [27]: 101% | viability, T/C [28]: 91.7% | viability, T/C [29]: 105% | viability, T/C [30]: 96.6% | viability, T/C [31]: 101% | viability, T/C [32]: 103% | viability, T/C [33]: 98.8% | viability, T/C [34]: 97.1% | viability, T/C [35]: 108% | viability, T/C [36]: 80.5%

CCc1c2c(nc3ccc(O)cc13)-c1cc3c(c(=O)n1C2)COC(=O)[C@]3(O)CC + Cc1cccc(N(C)C(=O)C2C(O)CCN2c2nc(C)cc(C(F)(F)F)c2C#N)c1
IC50 (second compound 0.0316 µM): 0.0187 µM | IC50 (second compound 0.1 µM): 0.0247 µM | IC50 (second compound 0.316 µM): 0.0243 µM | IC50 (second compound 1 µM): 0.0238 µM | IC50 (second compound 3.16 µM): 0.0221 µM | IC50 (second compound 10 µM): 0.0168 µM | viability, T/C (second compound 0.0316 µM, first compound 0.00316 µM): 106% | viability, T/C (second compound 0.0316 µM, first compound 0.01 µM): 64.3% | viability, T/C [1]: 39.6% | viability, T/C [2]: 17.9% | viability, T/C [3]: 11.2% | viability, T/C [4]: 6.74% | viability, T/C (second compound 0.1 µM, first compound 0.00316 µM): 102% | viability, T/C (second compound 0.1 µM, first compound 0.01 µM): 81.4% | viability, T/C [7]: 39.9% | viability, T/C [8]: 19.9% | viability, T/C [9]: 10.1% | viability, T/C [10]: 8.21% | viability, T/C (second compound 0.316 µM, first compound 0.00316 µM): 99.1% | viability, T/C (second compound 0.316 µM, first compound 0.01 µM): 87.7% | viability, T/C [13]: 38.2% | viability, T/C [14]: 15.9% | viability, T/C [15]: 11.5% | viability, T/C [16]: 6.74% | viability, T/C (second compound 1 µM, first compound 0.00316 µM): 101% | viability, T/C (second compound 1 µM, first compound 0.01 µM): 78.2% | viability, T/C [19]: 40.7% | viability, T/C [20]: 17.3% | viability, T/C [21]: 9.53% | viability, T/C [22]: 8.73% | viability, T/C (second compound 3.16 µM, first compound 0.00316 µM): 86.1% | viability, T/C (second compound 3.16 µM, first compound 0.01 µM): 73.7% | viability, T/C [25]: 39.1% | viability, T/C [26]: 16.7% | viability, T/C [27]: 13.6% | viability, T/C [28]: 8.63% | viability, T/C (second compound 10 µM, first compound 0.00316 µM): 92.2% | viability, T/C (second compound 10 µM, first compound 0.01 µM): 65.1% | viability, T/C [31]: 31.2% | viability, T/C [32]: 17% | viability, T/C [33]: 15.2% | viability, T/C [34]: 9.83%

CCc1cc2c(N3CCc4c(cc(Cn5ccnc5)cc4-c4cn(C)nc4C(F)(F)F)C3=O)cc(C)nc2c(OC)n1 + COC1C(OC(N)=O)C(O)C(Oc2ccc3c(O)c(NC(=O)c4ccc(O)c(CC=C(C)C)c4)c(=O)oc3c2C)OC1(C)C
IC50 (second compound 0.0316 µM): 7.26 µM | IC50 (second compound 0.1 µM): > 10 µM | IC50 (second compound 0.316 µM): 9.01 µM | IC50 (second compound 1 µM): > 10 µM | IC50 (second compound 3.16 µM): > 10 µM | IC50 (second compound 10 µM): 6.16 µM | viability, T/C [1]: 112% | viability, T/C [2]: 102% | viability, T/C [3]: 92.1% | viability, T/C [4]: 88.1% | viability, T/C [5]: 66.3% | viability, T/C [6]: 42.8% | viability, T/C [7]: 108% | viability, T/C [8]: 101% | viability, T/C [9]: 97.7% | viability, T/C [10]: 85.4% | viability, T/C [11]: 66.4% | viability, T/C [12]: 55.9% | viability, T/C [13]: 106% | viability, T/C [14]: 108% | viability, T/C [15]: 105% | viability, T/C [16]: 83.3% | viability, T/C [17]: 62.4% | viability, T/C [18]: 48.2% | viability, T/C [19]: 108% | viability, T/C [20]: 108% | viability, T/C [21]: 101% | viability, T/C [22]: 83.2% | viability, T/C [23]: 64.2% | viability, T/C [24]: 53.2% | viability, T/C [25]: 104% | viability, T/C [26]: 114% | viability, T/C [27]: 103% | viability, T/C [28]: 89.2% | viability, T/C [29]: 73.9% | viability, T/C [30]: 51.1% | viability, T/C [31]: 97.5% | viability, T/C [32]: 98% | viability, T/C [33]: 101% | viability, T/C [34]: 78.5% | viability, T/C [35]: 60.2% | viability, T/C [36]: 43.2%
